The results in this text go back to patent US12673935B2, “Pyrimidine derivative, and preparation method therefor and use thereof” (CGENETECH (SUZHOU, CHINA) CO., LTD., priority 2020, dated 2026).

The target of one test is CDK4/human cyclin D1 (Homo sapiens, UniProt P11802). In words: Determination of activity of CDK4 kinase (Caliper mobility shift). Format: biochemical. As to conditions: 25 μM ATP, 5 nM enzyme, 25° C. 6 hours; read-out: CDK4/CycD1 IC50. As to the method:
The activity of CDK4 kinase in vitro was tested by the following method: • Final buffer: • 100 mM 4-hydroxyethyl piperazine ethanesulfonic acid, pH 7.5; • 0.1% bovine serum albumin; • 0.01% Triton X-100; • 1 mM dithiothreitol; • 5 mM magnesium chloride; • 10 μM sodium orthovanadate; • 10 μM sodium P-glycerophosphate; • 25 μM ATP; • 1% DMSO (from the compound to be tested); • Substrate Peptide: 1 μM FAM-[…]-NH2 segment, wherein FAM is 5-carboxyfluorescein; • 5 nM CDK4/human cyclin D1.
(§1) 5 μL of buffer, 0.1 μL of compound to be tested (DMSO, 100 times the highest concentration) and 5 μL of substrate peptide buffer were added to a 384-well plate. The reaction was terminated with EDTA after culturing at 25° C. for 6 hours. Electrophoresis reading was started (Caliper LabChip® 3000 Drug Discovery System, blue laser (480 nm) for excitation, green CCD (520 nm) for detection of CCD2).

In a further test the target is CDK2/human cyclin E (Homo sapiens, UniProt P24941). Description: Determination of activity of CDK2 kinase (Caliper mobility shift). Format: biochemical. The note with it: 10 μM ATP, 0.1 nM enzyme, 25° C. 6 hours; read-out: CDK2/CycE IC50. As to the method: The activity of CDK2 kinase in vitro was tested by the following method: • Final buffer: • 100 mM 4-hydroxyethyl piperazine ethanesulfonic acid, pH 7.5; • 0.1% bovine serum albumin; • 0.01% Triton X-100; • 1 mM dithiothreitol; • 5 mM magnesium chloride; • 10 μM sodium orthovanadate; • 10 μM sodium P-glycerophosphate; • 10 μM ATP; • 1% DMSO (from the compound to be tested); • Substrate Peptide: 1 μM FAM-[…]-OH, wherein FAM is 5-carboxyfluorescein; • 0.1 nM CDK2/human cyclin E.
as §1

Another test relates to MDA-MB-468 cells. Description: Determination of activity of MDA-MB-468 cells (CellTiter-Glo). The class given is cell-based. The note with it: Homo sapiens, MDA-MB-468, 120 h, 5 days culture. On the procedure:
• MDA-MB-468 (ATCC No. HTB-132); • RPMI 1640 (Invitrogen No. 22400089); • FBS (Hyclone No. SV30087.03); • Pen Strep (Hyclone No. SV30010); • CellTiter-Glo (Promega No. G7573); • Medium: 89% RPMI 1640, 10% FBS and 1% Pen Strep;
300 MDA-MB-468 cells and 50 μL of medium were inoculated in a plate with 100 μL of PBS buffer added, which was then cultured for 24 hours at 37° C./5% CO2, then 250 nL of samples, which were taken from the compounds to be tested at ten test points and diluted with four times DMSO, were added to the plate wells and cultured for 5 days at 37° C./5% CO2, then 25 μL of CellTiter-Glo was added to each plate well, followed by centrifugation by rotating (1000 rpm) for 15 seconds, and vibration mixing (400 rpm) for 10 minutes, the microplate reader Envision was started to read.
Background: ATP-based viability assays read luminescence as a measure of living cells.

Another test addresses T1, CDK6/human cyclin D3 (Homo sapiens, UniProt Q00534).
T1 construct: purchased Carna 04-107
In words: Determination of activity of CDK6 kinase (Caliper mobility shift). Format: biochemical. As to conditions: 300 μM ATP, 2 nM enzyme, 25° C. 3 hours; read-out: CDK6/CycD3 IC50. As to the method: The activity of CDK6 kinase in vitro was tested by the following method: • 2 nM CDK6/human cyclin D3 (Carna, No. 04-107) • Final buffer: • 100 mM 4-hydroxyethyl piperazine ethanesulfonic acid, pH 7.5; • 0.1% bovine serum albumin; • 0.01% Triton X-100; • 1 mM dithiothreitol; • 5 mM magnesium chloride; • 10 μM sodium orthovanadate; • 10 μM sodium P-glycerophosphate; • 300 μM ATP; • 1% DMSO (from the compound to be tested); • Substrate peptide: Dyrktide;
5 μL of buffer, 0.1 μL of compound to be tested (DMSO, 100 times the highest concentration) and 5 μL of substrate peptide buffer were added to a 384-well plate. The reaction was terminated with EDTA after culturing at 25° C. for 3 hours. Electrophoresis reading was started (Caliper LabChip® 3000 Drug Discovery System, blue laser (480 nm) for excitation, green CCD (520 nm) for detection of CCD2).

T1 sequence (Q00534 whole entry): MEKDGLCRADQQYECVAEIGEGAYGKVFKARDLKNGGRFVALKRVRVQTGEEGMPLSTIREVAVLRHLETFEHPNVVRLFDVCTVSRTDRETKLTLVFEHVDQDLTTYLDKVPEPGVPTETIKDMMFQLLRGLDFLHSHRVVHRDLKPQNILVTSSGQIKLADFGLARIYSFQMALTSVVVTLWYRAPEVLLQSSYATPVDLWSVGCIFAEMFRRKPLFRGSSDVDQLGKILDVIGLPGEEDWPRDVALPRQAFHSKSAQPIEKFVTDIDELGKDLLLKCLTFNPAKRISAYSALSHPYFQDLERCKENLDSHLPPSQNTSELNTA
T1 sequence (P30281 whole entry partner): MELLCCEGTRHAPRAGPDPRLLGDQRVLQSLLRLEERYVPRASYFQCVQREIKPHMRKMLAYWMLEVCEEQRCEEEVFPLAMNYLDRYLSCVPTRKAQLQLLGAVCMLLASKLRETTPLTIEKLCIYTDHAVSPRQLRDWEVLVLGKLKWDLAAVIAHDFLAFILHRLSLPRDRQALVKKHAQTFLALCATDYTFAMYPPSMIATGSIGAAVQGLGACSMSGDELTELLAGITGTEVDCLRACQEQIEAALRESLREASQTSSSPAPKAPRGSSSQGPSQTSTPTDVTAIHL
CDK4/human cyclin D1, sequence (P11802 whole entry): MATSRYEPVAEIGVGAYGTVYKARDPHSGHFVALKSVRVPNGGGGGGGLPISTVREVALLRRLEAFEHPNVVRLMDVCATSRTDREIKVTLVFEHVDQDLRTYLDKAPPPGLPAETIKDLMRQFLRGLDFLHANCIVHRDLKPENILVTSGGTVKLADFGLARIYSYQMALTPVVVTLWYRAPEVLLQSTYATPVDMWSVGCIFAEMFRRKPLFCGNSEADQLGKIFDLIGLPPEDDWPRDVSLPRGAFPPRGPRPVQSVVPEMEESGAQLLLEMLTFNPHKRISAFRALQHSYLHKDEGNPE
CDK4/human cyclin D1, sequence (P24385 whole entry partner): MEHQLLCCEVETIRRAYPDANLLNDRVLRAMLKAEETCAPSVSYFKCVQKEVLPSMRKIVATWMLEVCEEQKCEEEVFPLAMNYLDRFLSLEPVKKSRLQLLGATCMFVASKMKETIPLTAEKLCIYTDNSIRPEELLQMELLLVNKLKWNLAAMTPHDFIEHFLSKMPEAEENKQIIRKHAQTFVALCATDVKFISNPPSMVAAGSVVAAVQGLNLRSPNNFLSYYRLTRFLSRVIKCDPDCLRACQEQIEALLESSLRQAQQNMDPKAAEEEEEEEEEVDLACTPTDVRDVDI

On to `Cc1nc2c(F)cc(-c3nc(Nc4ccc(N5CCC(N(C)CCO)CC5)cn4)ncc3F)cc2n1C(C)C` [Compound 1963], for which the IC50 on CDK4/human cyclin D1 was determined as 1.78 nM; at CDK2/human cyclin E, 101 nM; in the test on MDA-MB-468 cells, 459 nM; on CDK6/human cyclin D3, 1 nM.

As to `Cc1nc2c(F)cc(-c3nc(Nc4ccc(CN5CCC(N(C)CCO)CC5)cn4)ncc3F)cc2n1C(C)C` [Compound 1964], the IC50 at CDK4/human cyclin D1 was 1.4 nM; at CDK2/human cyclin E, 313 nM; with MDA-MB-468 cells, 126 nM; at CDK6/human cyclin D3, 8.6 nM.

Regarding `CNC1CCN(c2ccc(Nc3ncc(F)c(-c4cc(F)c5nc(C)n(C(C)C)c5c4)n3)nc2)CC1` [Compound 1967], the IC50 came to 0.17 nM at CDK4/human cyclin D1, 122 nM on CDK2/human cyclin E, 682 nM in the test on MDA-MB-468 cells and 1.23 nM at CDK6/human cyclin D3.

With `CC(C)n1c(CF)nc2c(F)cc(-c3nc(Nc4ccc(CN5CCC(N(C)C)CC5)cn4)ncc3F)cc21` [Compound 1975], the IC50 on CDK4/human cyclin D1 is 1.55 nM; on CDK2/human cyclin E, 8.2 nM; in the test on MDA-MB-468 cells it was 457 nM; at CDK6/human cyclin D3 it was 6.7 nM.

With `CCN1CCN(Cc2ccc(Nc3ncc(F)c(-c4cc(F)c5nc(CF)n(C(C)C)c5c4)n3)nc2)CC1` [Compound 1978], the IC50 amounted to 2.6 nM at CDK4/human cyclin D1, 459 nM on CDK2/human cyclin E, 1150 nM in the test on MDA-MB-468 cells and 9.8 nM at CDK6/human cyclin D3.

Consider `Cc1nc2c(F)cc(-c3nc(Nc4ccc(CN5CCN(CCO)CC5)cn4)ncc3F)cc2n1C(C)C` [Compound 1979], for which the IC50 at CDK4/human cyclin D1 is 0.83 nM; at CDK2/human cyclin E, 163 nM; in the test on MDA-MB-468 cells, 1390 nM; at CDK6/human cyclin D3, 4.1 nM.

On to `CC(C)n1c(CF)nc2c(F)cc(-c3nc(Nc4ccc(N5CCC(N(C)C)CC5)cn4)ncc3F)cc21` [Compound 1984], for which the IC50 on CDK4/human cyclin D1 stood at 1.25 nM; at CDK2/human cyclin E, 231 nM; with MDA-MB-468 cells, 344 nM; on CDK6/human cyclin D3, 3.9 nM.

Regarding `CCN1CCN(c2ccc(Nc3ncc(F)c(-c4cc(F)c5nc(CF)n(C(C)C)c5c4)n3)nc2)CC1` [Compound 1985], the IC50 was 0.98 nM on CDK4/human cyclin D1, 128 nM at CDK2/human cyclin E, 454 nM with MDA-MB-468 cells and 3 nM at CDK6/human cyclin D3.

In the case of `Cc1nc2c(F)cc(-c3nc(Nc4ccc(N5CCN(CCO)CC5)cn4)ncc3F)cc2n1C(C)C` [Compound 1986], the IC50 came to 1.2 nM on CDK4/human cyclin D1, 95 nM on CDK2/human cyclin E, 573 nM with MDA-MB-468 cells and 1.8 nM at CDK6/human cyclin D3.

Turning to `Cc1nc2c(F)cc(-c3nc(Nc4ccc(N5CCN(CC(C)O)CC5)cn4)ncc3F)cc2n1C(C)C` (centres unmarked) [Compound 1987], the IC50 at CDK4/human cyclin D1 stood at 1.2 nM; on CDK2/human cyclin E, 355 nM; in the test with MDA-MB-468 cells, 345 nM; on CDK6/human cyclin D3, 5.9 nM.

As for `COCCN1CCN(c2ccc(Nc3ncc(F)c(-c4cc(F)c5nc(C)n(C(C)C)c5c4)n3)nc2)CC1` [Compound 1988], the IC50 worked out at 0.75 nM at CDK4/human cyclin D1, 92 nM on CDK2/human cyclin E, 529 nM in the test on MDA-MB-468 cells and 1.1 nM on CDK6/human cyclin D3.

For the compound `CC(C)n1c(CF)nc2c(F)cc(-c3nc(Nc4ccc(N5CCC(N(C)CCO)CC5)cn4)ncc3F)cc21` [Compound 1990], the IC50 was 1.54 nM on CDK4/human cyclin D1, 5.3 nM on CDK2/human cyclin E, 276 nM in the test with MDA-MB-468 cells and 4.8 nM at CDK6/human cyclin D3.

Regarding `CCN1CCN(Cc2ccc(Nc3ncc(F)c(-c4cc(F)c5nc(CO)n(C(C)C)c5c4)n3)nc2)CC1` [Compound 1994], the IC50 on CDK4/human cyclin D1 was 0.67 nM; at CDK2/human cyclin E, 82 nM; in the test with MDA-MB-468 cells it was 485 nM; on CDK6/human cyclin D3 it was 8.7 nM.

As for `CC(C)n1c(CF)nc2c(F)cc(-c3nc(Nc4ccc(CN5CCC(N(C)CCO)CC5)cn4)ncc3F)cc21` [Compound 1995], the IC50 on CDK4/human cyclin D1 is 1.75 nM; at CDK2/human cyclin E, 6.2 nM; with MDA-MB-468 cells, 186 nM; on CDK6/human cyclin D3 it was 10.1 nM.
